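Cells were grown in 96-well plates and exposed to each compound for 48 hours at five concentrations; endpoints were interpolated linearly between bracketing concentrations, or set to the highest concentration if not reached. GI50 = concentration required for 50% inhibition of growth.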 Activity calls are given as the source filed them. No stated cut-off is given here; in the data, active = GI50 up to about 1.1 µM and inactive = higher.
Experiments:
Assay in all cases: inhibition of tumour cell growth, NCI panel, 48 h
SR = tested on: SR
SNB-75 = tested on: SNB-75
Malme-3M = tested on: Malme-3M
IGROV-1 = tested on: IGROV-1
NCI-H23 = tested on: NCI-H23
HCT-116 = tested on: HCT-116
HCT-15 = tested on: HCT-15
NCI-H460 = tested on: NCI-H460
OVCAR-8 = tested on: OVCAR-8
A498 = tested on: A498
SK-MEL-2 = tested on: SK-MEL-2
OVCAR-4 = tested on: OVCAR-4
MOLT-4 = tested on: MOLT-4
UACC-62 = tested on: UACC-62
SW-620 = tested on: SW-620
EKVX = tested on: EKVX
KM12 = tested on: KM12
HL-60 = tested on: HL-60
COLO 205 = tested on: COLO 205
PC-3 = tested on: PC-3

| Compound | GI50 (SR) | GI50 (SNB-75) | GI50 (Malme-3M) | GI50 (IGROV-1) | GI50 (NCI-H23) | GI50 (HCT-116) | GI50 (HCT-15) [µM] | GI50 (NCI-H460) | GI50 (OVCAR-8) | GI50 (A498) | GI50 (SK-MEL-2) | GI50 (OVCAR-4) | GI50 (MOLT-4) | GI50 (UACC-62) | GI50 (SW-620) | GI50 (EKVX) | GI50 (KM12) | GI50 (HL-60) | GI50 (COLO 205) | GI50 (PC-3) |
| --- | --- | --- | --- | --- | --- | --- | --- | --- | --- | --- | --- | --- | --- | --- | --- | --- | --- | --- | --- | --- |
| CCOC(=O)c1[nH]c2cc(OC)c(OC)cc2c1CN(C)C | > 100 µM (inactive) | 67 µM (inactive) | > 100 µM (inactive) | > 100 µM (inactive) | > 100 µM (inactive) | > 100 µM (inactive) | > 100 | > 100 µM (inactive) | > 100 µM (inactive) | > 100 µM (inactive) | > 100 µM (inactive) | > 100 µM (inactive) | > 100 µM (inactive) | > 100 µM (inactive) | > 100 µM (inactive) | > 100 µM (inactive) | > 100 µM (inactive) | > 100 µM (inactive) |  |  |
| O=C(/C=C/c1ccccc1)NC1C=Nc2ccc([N+](=O)[O-])cc2NC1=O (configuration not stated) | > 100 µM (inactive) | > 100 µM (inactive) | > 100 µM (inactive) | > 100 µM (inactive) | 76.4 µM (inactive) | 96.6 µM (inactive) | 23.2 | > 100 µM (inactive) | > 100 µM (inactive) | > 100 µM (inactive) | 25.7 µM (inactive) | > 100 µM (inactive) | 53.8 µM (inactive) | 44.1 µM (inactive) | > 100 µM (inactive) | > 100 µM (inactive) | 18.1 µM (inactive) | 25.3 µM (inactive) | 29 µM (inactive) |  |
| Cc1occ2c1C(=O)CC1C2[C@@H](O)CC2C(C)(C)CCC[C@]12C (some centres not stated) | 67.5 µM (inactive) | > 100 µM (inactive) | > 100 µM (inactive) | > 100 µM (inactive) | > 100 µM (inactive) | > 100 µM (inactive) | > 100 |  | > 100 µM (inactive) | > 100 µM (inactive) |  | 98.9 µM (inactive) | 40 µM (inactive) | 95.7 µM (inactive) | > 100 µM (inactive) | > 100 µM (inactive) |  | 44.7 µM (inactive) | > 100 µM (inactive) |  |
| N#CCc1ccc(C(C#N)/C(CCCC(=O)Nc2cccc([N+](=O)[O-])c2)=N\NC(=O)NN)cc1 (configuration not stated) | > 100 µM (inactive) | > 100 µM (inactive) | > 100 µM (inactive) | > 100 µM (inactive) | > 100 µM (inactive) | > 100 µM (inactive) | > 100 | > 100 µM (inactive) | > 100 µM (inactive) | > 100 µM (inactive) | > 100 µM (inactive) | > 100 µM (inactive) | > 100 µM (inactive) | > 100 µM (inactive) | > 100 µM (inactive) | > 100 µM (inactive) | > 100 µM (inactive) | > 100 µM (inactive) | > 100 µM (inactive) |  |
| Oc1cc(O)cc(-c2nc3cc(F)ccc3s2)c1 |  |  | 31.6 µM (inactive) | 27.7 µM (inactive) | 26.4 µM (inactive) | 24.5 µM (inactive) | 19.7 | 22.8 µM (inactive) | 22.6 µM (inactive) | 18.5 µM (inactive) | 22.7 µM (inactive) | 18.5 µM (inactive) |  | 21.1 µM (inactive) | 38.1 µM (inactive) |  | 20.4 µM (inactive) |  | 21 µM (inactive) | 25.1 µM (inactive) |
| CC(=O)c1ccc(NC(=O)C(=O)Nn2c(S)nc3ccccc3c2=O)cc1 | > 100 µM (inactive) | > 100 µM (inactive) | > 100 µM (inactive) | > 100 µM (inactive) | > 100 µM (inactive) | > 100 µM (inactive) | > 100 | > 100 µM (inactive) | > 100 µM (inactive) | > 100 µM (inactive) | > 100 µM (inactive) | > 100 µM (inactive) | > 100 µM (inactive) | > 100 µM (inactive) | > 100 µM (inactive) | > 100 µM (inactive) | > 100 µM (inactive) | > 100 µM (inactive) | > 100 µM (inactive) |  |
| CC1(C)C2CCC3(C2)CS(=O)(=O)N2OC231 (configuration not stated) | > 100 µM (inactive) | 17 µM (inactive) | 15.5 µM (inactive) | 19.5 µM (inactive) | 16.6 µM (inactive) | 31.3 µM (inactive) | 16.1 | 19.5 µM (inactive) | 24.8 µM (inactive) | 25.2 µM (inactive) | 21.1 µM (inactive) |  |  | 17.5 µM (inactive) | 16.5 µM (inactive) | 15.7 µM (inactive) | 19.6 µM (inactive) | 15.4 µM (inactive) | 17.9 µM (inactive) |  |
| C/C(CC(=O)NC1=CC=C(NC(=O)C/C(C)=N\Nc2ccccc2)CC1)=N/Nc1ccccc1 | 37.8 µM (inactive) | > 100 µM (inactive) | > 100 µM (inactive) | > 100 µM (inactive) | > 100 µM (inactive) | > 100 µM (inactive) | 29.7 | > 100 µM (inactive) | > 100 µM (inactive) | > 100 µM (inactive) | > 100 µM (inactive) | > 100 µM (inactive) | > 100 µM (inactive) | > 100 µM (inactive) |  | > 100 µM (inactive) | > 100 µM (inactive) | 50.1 µM (inactive) | 27.1 µM (inactive) |  |
| CN(C)c1n/c(=N/c2ccc3ccccc3c2)ss1 | 11.6 µM (inactive) | 20.8 µM (inactive) | 24.4 µM (inactive) | 19 µM (inactive) |  | 13.8 µM (inactive) | 17.3 | 5.75 µM (inactive) | 19.5 µM (inactive) | 30.6 µM (inactive) | 21.3 µM (inactive) | 17.5 µM (inactive) | 4.45 µM (inactive) | 21.5 µM (inactive) | 45.3 µM (inactive) |  | 15.6 µM (inactive) | 16.1 µM (inactive) | 11.2 µM (inactive) |  |
| Cc1cc(OCc2nnc3n2S(=O)(=O)c2ccccc2N3C)ccc1Cl |  |  |  | 22.9 µM (inactive) | 34.4 µM (inactive) | 39.5 µM (inactive) | > 100 | 39.9 µM (inactive) | 26.3 µM (inactive) | 24.6 µM (inactive) | > 100 µM (inactive) | 8 µM (inactive) | 55 µM (inactive) | 17.2 µM (inactive) | > 100 µM (inactive) | 33.1 µM (inactive) | > 100 µM (inactive) | 21 µM (inactive) | > 100 µM (inactive) | 95.5 µM (inactive) |
| O=C(Cc1ccccc1)N/N=C(/c1nc2ccc([N+](=O)[O-])cc2nc1O)C(O)c1ccc(C(O)/C(=N/NC(=O)Cc2ccccc2)c2nc3ccc([N+](=O)[O-])cc3nc2O)cc1 (configuration not stated) | > 10 µM (inactive) | 31.3 µM (inactive) | > 100 µM (inactive) | > 100 µM (inactive) | > 100 µM (inactive) | 48.8 µM (inactive) | 19.4 |  | 80.4 µM (inactive) | > 100 µM (inactive) | 40 µM (inactive) | > 100 µM (inactive) |  | 35.6 µM (inactive) | 39.4 µM (inactive) | > 100 µM (inactive) |  | 7.01 µM (inactive) | 37.5 µM (inactive) |  |
| Cc1c(-c2ccccc2)c(=O)oc2ccc(Cl)cc12 | > 100 µM (inactive) | 16.1 µM (inactive) | 99.3 µM (inactive) | > 100 µM (inactive) | 57.8 µM (inactive) | 38.1 µM (inactive) | > 100 | 70.5 µM (inactive) | 53.3 µM (inactive) | > 100 µM (inactive) | > 100 µM (inactive) | 53.3 µM (inactive) | > 100 µM (inactive) | 59.8 µM (inactive) | > 100 µM (inactive) | 64.7 µM (inactive) | > 100 µM (inactive) | > 100 µM (inactive) | > 100 µM (inactive) |  |
| COc1cc(/C=C2/SC(c3ccccc3)N(c3ccccc3Cl)C2=O)cc(OC)c1OC (configuration not stated) | 23.8 µM (inactive) |  | 23.4 µM (inactive) |  | 22.8 µM (inactive) | 23.7 µM (inactive) | 31.6 | 43.7 µM (inactive) | 35.2 µM (inactive) | 87.3 µM (inactive) | 33.9 µM (inactive) | 41.6 µM (inactive) | 28.6 µM (inactive) | 37.9 µM (inactive) | 37.8 µM (inactive) | 44.1 µM (inactive) | 26.8 µM (inactive) | 16.5 µM (inactive) | 23.3 µM (inactive) |  |
| COCCCNC(=O)CC(=O)NCCCOC | > 100 µM (inactive) |  | > 100 µM (inactive) | > 100 µM (inactive) | > 100 µM (inactive) | > 100 µM (inactive) | > 100 | > 100 µM (inactive) | > 100 µM (inactive) | > 100 µM (inactive) | > 100 µM (inactive) | > 100 µM (inactive) | > 100 µM (inactive) | > 100 µM (inactive) | > 100 µM (inactive) | > 100 µM (inactive) | > 100 µM (inactive) | > 100 µM (inactive) | > 100 µM (inactive) |  |
| O=C(/C=C\c1ccccc1O)c1ccc(O)cc1O | > 100 µM (inactive) | 0.0128 µM (active) | > 100 µM (inactive) | > 100 µM (inactive) | > 100 µM (inactive) | > 100 µM (inactive) | > 100 | > 100 µM (inactive) | > 100 µM (inactive) | > 100 µM (inactive) | > 100 µM (inactive) | 54.6 µM (inactive) | > 100 µM (inactive) | > 100 µM (inactive) | 10.8 µM (inactive) | > 100 µM (inactive) | > 100 µM (inactive) | 81.8 µM (inactive) | 28.6 µM (inactive) |  |
| COc1cc2cccc(/N=C\c3ccccc3Cl)c2cc1OC | 3.94 µM (inactive) | > 100 µM (inactive) | > 100 µM (inactive) | > 100 µM (inactive) | > 100 µM (inactive) | 80.7 µM (inactive) | 25.5 | > 100 µM (inactive) | > 100 µM (inactive) |  | > 100 µM (inactive) | > 100 µM (inactive) | > 100 µM (inactive) | 66.5 µM (inactive) | 26.5 µM (inactive) | > 100 µM (inactive) | > 100 µM (inactive) | 4.48 µM (inactive) | > 100 µM (inactive) |  |

Source: ChEMBL document CHEMBL1201862, “PubChem BioAssay data set” (2004)
